{
  "source": "patent US6486128B1",
  "about": "“Method of using emamectin to treat fish parasites” (Schering-Plough Veterinary Corporation, priority 1999, dated 2002)",
  "origin": "cited, not measured here",
  "key": {"[1]": {"details": "orally administered; cited from earlier work"}, "[2]": {"system": "sea lice", "details": "commonly adopted dose rate of 25 μg kg^−1 biomass twice weekly; cited from earlier work"}},
  "data": [
    {"substance": "22,23-dihydroavermectin B1 [ivermectin]", "values": [
      {"measurement": "levels found to be toxic", "setting": "[1]", "value": "greater than 25 μg kg^−1 biomass twice weekly"},
      {"measurement": "control of sea lice", "setting": "[2]", "value": "some control"}
    ]}
  ]
}
